{"source": "patent US11202787B2", "about": "“Use of ACTH in assessment and prophylactic treatment of hypokalemia associated with glucocorticoid receptor modulator treatment of Cushing's syndrome patients” (Corcept Therapeutics, Inc., priority 2018, dated 2021)", "test_system": "cortisol", "assay": "24-hour urine cortisol during mifepristone treatment of Cushing's syndrome patients", "format": "in vivo, human", "conditions": "Mean ± SD", "description": "The Cushing's syndrome study reported herein was conducted in accordance with the Declaration of Helsinki and Good Clinical Practice (GCP) according to International Conference on Harmonization (ICH) guidelines.\nDosing Schedule Dosing was started with 300 mg of mifepristone once per day for 14 days. After 14 days, if no clinical improvement was seen but the drug was well tolerated, the dose of mifepristone was increased to 600 mg once per day. After 4 weeks of dosing at 600 mg once per day, if no clinical improvement was seen but the drug was well tolerated, the dose was increased to 900 mg once per day. Dose escalation was based on weight with the maximum dose no higher than 20 mg/kg/day. […] After 4 weeks of dosing at 900 mg once per day, if no clinical improvement was seen but the drug was well tolerated, the dose was increased to 1200 mg once per day. Study duration was 24 weeks.\nPotassium levels were obtained on every subject at either screening or the pre-drug administration baseline visit, and then also at every scheduled post-baseline visit. Potassium levels post-baseline were therefore obtained as early as day 7 and through day 210 (week 30 was the last visit and was the 6 week follow-up visit). ACTH, and cortisol were measured at six visits (week 2 (day 14), week 6 (day 42), week 10 (day 70), week 16 (day 112), and week 24 (day 168) week 6 follow-up (day 210)).", "key": {"[1]": {"conditions": "Day 210 (6 week follow-up), Hypokalemic"}, "[2]": {"conditions": "Day 210 (6 week follow-up), Non-Hypokalemic"}}, "data": [{"smiles": "CC#C[C@]1(O)CC[C@H]2[C@@H]3CCC4=CC(=O)CCC4=C3[C@@H](c3ccc(N(C)C)cc3)C[C@@]21C", "note": "[mifepristone, 11β-(4-dimethylaminophenyl)-17β-hydroxy-17α-(1-propynyl)-estra-4,9-dien-3-one]", "values": [{"measurement": "24 Hour Urine Cortisol (nmol/24 hr)/ACTH Ratio Visit Values", "setting": "Day 42, Hypokalemic", "value": "26.1 ± 18.4 (6)"}, {"measurement": "24 Hour Urine Cortisol Visit Change Values from Baseline", "setting": "Day 42, Hypokalemic", "value": "641 ± 3678 (6) nmol/24 hr"}, {"measurement": "24 Hour Urine Cortisol Visit Values", "setting": "Day 42, Hypokalemic", "value": "4373 ± 5347 (6) nmol/24 hr"}, {"measurement": "24 Hour Urine Cortisol (nmol/24 hr)/ACTH Ratio Visit Values", "setting": "Day 42, Non-Hypokalemic", "value": "7.9 ± 6.0 (35)"}, {"measurement": "24 Hour Urine Cortisol Visit Change Values from Baseline", "setting": "Day 42, Non-Hypokalemic", "value": "329 ± 967 (35) nmol/24 hr"}, {"measurement": "24 Hour Urine Cortisol Visit Values", "setting": "Day 42, Non-Hypokalemic", "value": "886 ± 1060 (35) nmol/24 hr"}, {"measurement": "24 Hour Urine Cortisol (nmol/24 hr)/ACTH Ratio Visit Values", "setting": "Day 70, Hypokalemic", "value": "33.5 ± 16.1 (6)"}, {"measurement": "24 Hour Urine Cortisol Visit Change Values from Baseline", "setting": "Day 70, Hypokalemic", "value": "4856 ± 4805 (6) nmol/24 hr"}, {"measurement": "24 Hour Urine Cortisol Visit Values", "setting": "Day 70, Hypokalemic", "value": "9132 ± 9321 (6) nmol/24 hr"}, {"measurement": "24 Hour Urine Cortisol (nmol/24 hr)/ACTH Ratio Visit Values", "setting": "Day 70, Non-Hypokalemic", "value": "17.0 ± 32.7 (30)"}, {"measurement": "24 Hour Urine Cortisol Visit Change Values from Baseline", "setting": "Day 70, Non-Hypokalemic", "value": "1045 ± 3500 (30) nmol/24 hr"}, {"measurement": "24 Hour Urine Cortisol Visit Values", "setting": "Day 70, Non-Hypokalemic", "value": "1696 ± 3387 (30) nmol/24 hr"}, {"measurement": "24 Hour Urine Cortisol (nmol/24 hr)/ACTH Ratio Visit Values", "setting": "Day 112, Hypokalemic", "value": "30.9 ± 31.0 (9)"}, {"measurement": "24 Hour Urine Cortisol Visit Change Values from Baseline", "setting": "Day 112, Hypokalemic", "value": "2916 ± 2593 (9) nmol/24 hr"}, {"measurement": "24 Hour Urine Cortisol Visit Values", "setting": "Day 112, Hypokalemic", "value": "3552 ± 2827 (9) nmol/24 hr"}, {"measurement": "24 Hour Urine Cortisol (nmol/24 hr)/ACTH Ratio Visit Values", "setting": "Day 112, Non-Hypokalemic", "value": "9.6 ± 16.3 (23)"}, {"measurement": "24 Hour Urine Cortisol Visit Change Values from Baseline", "setting": "Day 112, Non-Hypokalemic", "value": "104 ± 5293 (23) nmol/24 hr"}, {"measurement": "24 Hour Urine Cortisol Visit Values", "setting": "Day 112, Non-Hypokalemic", "value": "1314 ± 3351 (23) nmol/24 hr"}, {"measurement": "24 Hour Urine Cortisol (nmol/24 hr)/ACTH Ratio Visit Values", "setting": "Day 168, Hypokalemic", "value": "19.3 ± 9.5 (5)"}, {"measurement": "24 Hour Urine Cortisol Visit Change Values from Baseline", "setting": "Day 168, Hypokalemic", "value": "4128 ± 6624 (5) nmol/24 hr"}, {"measurement": "24 Hour Urine Cortisol Visit Values", "setting": "Day 168, Hypokalemic", "value": "5615 ± 5053 (5) nmol/24 hr"}, {"measurement": "24 Hour Urine Cortisol (nmol/24 hr)/ACTH Ratio Visit Values", "setting": "Day 168, Non-Hypokalemic", "value": "12.4 ± 15.5 (36)"}, {"measurement": "24 Hour Urine Cortisol Visit Change Values from Baseline", "setting": "Day 168, Non-Hypokalemic", "value": "512 ± 4575 (36) nmol/24 hr"}, {"measurement": "24 Hour Urine Cortisol Visit Values", "setting": "Day 168, Non-Hypokalemic", "value": "1444 ± 3127 (36) nmol/24 hr"}, {"measurement": "24 Hour Urine Cortisol (nmol/24 hr)/ACTH Ratio Visit Values", "setting": "[1]", "value": "11.5 ± 7.5 (3)"}, {"measurement": "24 Hour Urine Cortisol Visit Change Values from Baseline", "setting": "[1]", "value": "2497 ± 3776 (3) nmol/24 hr"}, {"measurement": "24 Hour Urine Cortisol Visit Values", "setting": "[1]", "value": "5129 ± 6335 (3) nmol/24 hr"}, {"measurement": "24 Hour Urine Cortisol (nmol/24 hr)/ACTH Ratio Visit Values", "setting": "[2]", "value": "12.5 ± 27.9 (35)"}, {"measurement": "24 Hour Urine Cortisol Visit Change Values from Baseline", "setting": "[2]", "value": "471 ± 2843 (35) nmol/24 hr"}, {"measurement": "24 Hour Urine Cortisol Visit Values", "setting": "[2]", "value": "1423 ± 6086 (35) nmol/24 hr"}]}]}
